These results are taken from US7906106B2, “In vivo cell trafficking” (General Electric Company, priority 2007, dated 2011).

The test system of the data set is granuloma-derived nucleated cells. Description: FACS analysis to determine cell viability (7-AAD) after staining with Cy7.5 NHS-ester. Particulars: granuloma-derived nucleated cells stained with 1 μg dye in 10 ml PBS, on ice 20 minutes. The format is cell-based, mouse. The protocol:
Cell Staining. 1 μg of Cy 7.5-NHS ester was mixed in 10 ml of PBS. The cells are resuspended in the buffer and left on ice for 20 minutes. Cells were washed three times in PBS and the cell pellet is placed under Optix scanner to confirm cell staining. The cells were resuspended in PBS and 100 μl of the cell suspension (containing 0.5×10^6 cells/100 μl) was injected via the tail vein. The stained cell pellet generated signal that was detected by the scanner.
FACS Analysis to Determine Cell Viability. Stained cells were washed three times in PBS and resuspended in 100 μl PBS. The cell suspension was incubated with 20 μl of 7-AAD for 20 minutes at room temperature. The cells are washed once in PBS and resuspended in 500 μl of PBS, then analyzed in FACS for viability.
FACS Analysis for Cellular Markers. The cells were stained with cell markers for leukocytes (CD45) and monocyte/macrophage (CD 11 b). Both CD11b and CD45 antibodies were purchased from Miltenyi Biotec and stained following vendors instructions. Thus, 10 μl of CD11b PE antibody and 10 μl CD45 FITC were incubated with 1×10^6 cells for 20 minutes. The cells were washed in PBS, resuspend in 0.5 mL PBS, and run on Flow Cytometer (Beckman Coulter FC500 MPL). The cells were viable after staining with Cye7.5 NHS-ester and 72% of cell population in the suspension were positive for CD45 and CD11b.

For Cy7.5-NHS ester [Cye7.5 NHS-ester], the “cell viability after staining” value is recorded as “viable”.
